These results are taken from patent US11291704B2, “Composition for preventing or treating obesity containing ethanolic extract of Ramulus mori” (Korea University Research and Business Foundation, priority 2016, dated 2022).

For this assay, the system named is 3T3-L1 cells. The assay is described as follows: Lipid accumulation evaluation, Oil red O staining of MDI-differentiated adipocytes. The class given is cell-based. To be noted: 5 mM; DMSO-only sample = 100%; absorbance at 500 nm. How it is done: For induction of 3T3-L1 cells into adipocytes, the cells were treated with MDI (5 μg/ml insulin, 0.5 mM IBMX, and 1.0 μM dexamethasone) in DMEM containing 10% FBS and 1% penicillin-streptomycin, followed by induction of differentiation for 2 days. The differentiated 3T3-L1 cells were washed with physiological buffered saline (PBS), and then fixed with 10% formalin for 1 hour. The fixed cells were washed twice with ddH2O, treated with 60% isopropanol for 5 minutes, and then stained with Oil red O solution (dissolved in 60% isopropanol) for 10 minutes. After staining, the cells were washed four times with ddH2O, and de-stained with 100% isopropanol for 10 minutes, and then the cells were observed using a microscope and measured for absorbance at 500 nm.
The result of the sample treated with only DMSO used as a solvent was converted to 100%, and quantitatively measured for lipids.

As to `CC(=O)N[C@@H](CS)C(=O)O` [n-acetyl cysteine], the lipid accumulation worked out at 20.6±3.7%.
